Consider one compound from US20100160397A1, “OXAZOLE DERIVATIVES AND THEIR USE IN THE TREATMENT OF DIABETES AND OBESITY” (priority 2006, published 2010).

Broadly, the IC50 is the concentration that gives 50% inhibition.

Structures are written as SMILES.

This assay addresses T1, human DGAT1 (Homo sapiens, UniProt O75907).
T1 construct: made in house; host or cells: sf9 insect cells (baculovirus), membrane fraction
T1 sequence (O75907 1-488): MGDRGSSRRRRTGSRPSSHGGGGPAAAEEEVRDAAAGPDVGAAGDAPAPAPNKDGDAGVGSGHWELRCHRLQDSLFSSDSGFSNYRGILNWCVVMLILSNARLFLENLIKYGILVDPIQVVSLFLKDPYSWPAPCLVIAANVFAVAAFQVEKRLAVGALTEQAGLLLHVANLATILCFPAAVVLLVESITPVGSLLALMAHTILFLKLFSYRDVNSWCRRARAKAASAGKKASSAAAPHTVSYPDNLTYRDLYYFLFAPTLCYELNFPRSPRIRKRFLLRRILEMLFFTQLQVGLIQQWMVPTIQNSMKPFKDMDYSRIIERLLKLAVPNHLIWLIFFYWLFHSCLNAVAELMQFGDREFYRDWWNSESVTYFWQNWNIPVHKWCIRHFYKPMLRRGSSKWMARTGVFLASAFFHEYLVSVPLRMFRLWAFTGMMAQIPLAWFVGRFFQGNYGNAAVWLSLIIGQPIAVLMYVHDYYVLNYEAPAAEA
The assay is described as follows: Human Enzyme Assay (DGAT1 inhibition, 14C oleoyl CoA incorporation into triolein). The format is biochemical. The following applies: human DGAT1 expressed in insect cell (sf9) membranes; 30 μM 14C oleoyl coenzyme A, 30 minutes at room temperature. As to the method:
As indicated above, all of the compounds, and their corresponding pharmaceutically-acceptable salts, are useful in inhibiting DGAT1.
The in vitro assay to identify DGAT1 inhibitors uses human DGAT1 expressed in insect cell membranes as the enzyme source (Proc. Natl. Acad. Sci. 1998, 95, 13018-13023). Briefly, sf9 cells were infected with recombinant baculovirus containing human DGAT1 coding sequences and harvested after 48 h. Cells were lysed by sonication and membranes isolated by centrifuging at 28000 rpm for 1 h at 4° C. on a 41% sucrose gradient. The membrane fraction at the interphase was collected, washed, and stored in liquid nitrogen.
DGAT1 activity was assayed by a modification of the method described by Coleman (Methods in Enzymology 1992, 209, 98-102). Compound at 1-10 μM was incubated with 0.4 μg membrane protein, 5 mM MgCl2, and 10 0 μM 1,2 dioleoyl-sn-glycerol in a total assay volume of 200 μl in plastic tubes. The reaction was started by adding ^14C oleoyl coenzyme A (30 μM final concentration) and incubated at room temperature for 30 minutes. The reaction was stopped by adding 1.5 mL 2-propanol:heptane:water (80:20:2). Radioactive triolein product was separated into the organic phase by adding 1 mL heptane and 0.5 mL 0.1 M carbonate buffer pH 9.5. DGAT1 activity was quantified by counting aliquots of the upper heptane layer by liquid scintillography.

`COC(=O)C[C@H]1CC[C@H](c2ccc(NC(=O)c3coc(Nc4ccc(F)c(F)c4)n3)cc2)CC1` [Example 2, Methyl trans-2-{4-[4-({2-[(3,4-difluorophenyl)amino]-1,3-oxazole-4-carbonyl}amino)phenyl]cyclohexyl}acetate] displayed an IC50 of 32 µM.
